According to US20080051454A1, “Compositions and methods for transient receptor potential vanilloid (TRPV) channel mediated treatments” (The Board of Trustees Operating Michigan State University, priority 2006, published 2008):

Tests used:
[1] = test system: rats; settings: dose-dependent; abolished by TRPV1 blockade or ipsilateral renal denervation; cited from earlier work
[2] = test system: renal cortex and medulla; assay: Neonatal capsaicin treatment plus NS or HS diet: renal superoxide, SOD and NAD(P)H oxidase subunits; parameters: species or system rat; settings: for renal cortical Cu/Zn SOD activity / renal cortical Cu/Zn SOD protein expression / renal cortical Mn SOD activity / renal cortical Mn SOD protein expression / renal cortical O2— production / renal cortical gp91 phox protein expression / renal cortical p47phox protein expression / renal medullary Cu/Zn SOD activity / renal medullary Cu/Zn SOD protein expression / renal medullary Mn SOD activity / renal medullary Mn SOD protein expression / renal medullary O2— production / renal medullary p47phox protein expression: neonatal CAP
Method: Enhanced oxidative stress in kidneys of salt-sensitive hypertension: role of sensory nerves (Am J Physiol Heart Circ Physiol 291: H3136-H3143, 2006). To determine the mechanism(s) underlying enhanced oxidative stress in kidneys of salt-sensitive hypertension, neonatal Wistar rats were given vehicle or capsaicin (CAP, 50 mg/kg sc) on the first and second days of life. After being weaned, male rats were assigned into four groups and treated for 2 wk with the following: vehicle+a normal sodium diet (NS, 0.4%, CON-NS), vehicle+a high-sodium diet (HS, 4%, CON-HS), CAP+NS (CAP−NS), and CAP+HS (CAP−HS). […] Plasma and urinary 8-iso-prostaglandin F2alpha levels increased by approximately 40% in CON-HS and CAP−HS rats compared with their respective controls fed a NS diet (P≦0.05), and these parameters were higher in CAP−HS compared with CON-HS rats. Superoxide (O2—) levels in the renal cortex and medulla increased by approximately 45% in CAP−HS compared with CON-HS, CON-NS, and CAP−NS rats (P≦0.05). […]

[3] = test system: rats fed either a high or normal sodium diet; settings: rat, in vivo; cited from earlier work
[4] = test system: Wistar rats fed a NS or HS diet for 10 days; assay: MAP responses to i.v. capsaicin with or without CAPZ in urethane-anesthetized rats; assay type: in vivo, rat; settings: for decrease in MAP: in mmHg
Method: Surgical Preparation Rats were anesthetized with ketamine and xylazine (80 and 4 mg/kg intraperitoneally, respectively) for cannulation or with urethane (1.5 g/kg intraperitoneally) for capsaicin administration. The left jugular vein, carotid and femoral artery were cannulated under anesthesia for injection of drugs or monitoring of mean arterial pressure (MAP) and heart rate (HR).
Each dose of injection was separated by a 30-minute interval. To determine the specificity of capsaicin, CAPZ (3 mg/kg) was administered 10 minutes before capsaicin injection in a separate group.

[5] = test system: renal tissues; assay: Capsaicin-induced CGRP release from renal tissues; parameters: species or system rat; settings: Cap-HS and Cap-NS vs Con-NS and Con-HS
From the text: N¼5,_P<0.05 versus vehicle, capsazepine plus capsaicin and capsazepine; †P<0.001 versus capsaicin of control rats with a normal sodium diet (Con-NS) and capsaicin of control rats with a high sodium diet (Con-HS). Vehicle; capsaicin; capsazepine and capsaicin; capsazepine.
To examine renal sensory nerve function, renal CGRP release after stimulation of the renal sensory nerves with capsaicin was examined.

[6] = test system: Wistar rats; assay: Neonatal capsaicin treatment plus NS or HS diet: blood pressure, 8-isoprostane, creatinine clearance; assay type: in vivo, rat
Method: Enhanced oxidative stress in kidneys of salt-sensitive hypertension: role of sensory nerves (Am J Physiol Heart Circ Physiol 291: H3136-H3143, 2006). To determine the mechanism(s) underlying enhanced oxidative stress in kidneys of salt-sensitive hypertension, neonatal Wistar rats were given vehicle or capsaicin (CAP, 50 mg/kg sc) on the first and second days of life. After being weaned, male rats were assigned into four groups and treated for 2 wk with the following: vehicle+a normal sodium diet (NS, 0.4%, CON-NS), vehicle+a high-sodium diet (HS, 4%, CON-HS), CAP+NS (CAP−NS), and CAP+HS (CAP−HS). […] Plasma and urinary 8-iso-prostaglandin F2alpha levels increased by approximately 40% in CON-HS and CAP−HS rats compared with their respective controls fed a NS diet (P≦0.05), and these parameters were higher in CAP−HS compared with CON-HS rats. Superoxide (O2—) levels in the renal cortex and medulla increased by approximately 45% in CAP−HS compared with CON-HS, CON-NS, and CAP−NS rats (P≦0.05).

[7] = test system: WT and TRPV1−/− hearts; assay: OLDA-induced CGRP and SP release from hearts (radioimmunoassay); parameters: species or system mouse
[8] = test system: hearts of WT mice; assay: Langendorff perfused heart, ischemia and reperfusion (I/R) with OLDA, wild type; parameters: species or system mouse; settings: OLDA 1.5×10^−7M; WT
Method: (§1) The following measurements were made on the two types of heart tissue: left ventricular end-diastolic pressure (LVEDP), left ventricular developed pressure (LVDP), coronary flow (CF), and left ventricular (LV) peak positive rate of pressure change/rate of time change (+dP/dt) were evaluated after I/R.

[9] = molecular target: transient receptor potential vanilloid type 1 (TRPV1) channel (Homo sapiens, UniProt Q8NER1); settings: in vitro; cited from earlier work
Chain of transient receptor potential vanilloid type 1 (TRPV1) channel (Q8NER1 whole entry, species assumed, the tested form may be a part): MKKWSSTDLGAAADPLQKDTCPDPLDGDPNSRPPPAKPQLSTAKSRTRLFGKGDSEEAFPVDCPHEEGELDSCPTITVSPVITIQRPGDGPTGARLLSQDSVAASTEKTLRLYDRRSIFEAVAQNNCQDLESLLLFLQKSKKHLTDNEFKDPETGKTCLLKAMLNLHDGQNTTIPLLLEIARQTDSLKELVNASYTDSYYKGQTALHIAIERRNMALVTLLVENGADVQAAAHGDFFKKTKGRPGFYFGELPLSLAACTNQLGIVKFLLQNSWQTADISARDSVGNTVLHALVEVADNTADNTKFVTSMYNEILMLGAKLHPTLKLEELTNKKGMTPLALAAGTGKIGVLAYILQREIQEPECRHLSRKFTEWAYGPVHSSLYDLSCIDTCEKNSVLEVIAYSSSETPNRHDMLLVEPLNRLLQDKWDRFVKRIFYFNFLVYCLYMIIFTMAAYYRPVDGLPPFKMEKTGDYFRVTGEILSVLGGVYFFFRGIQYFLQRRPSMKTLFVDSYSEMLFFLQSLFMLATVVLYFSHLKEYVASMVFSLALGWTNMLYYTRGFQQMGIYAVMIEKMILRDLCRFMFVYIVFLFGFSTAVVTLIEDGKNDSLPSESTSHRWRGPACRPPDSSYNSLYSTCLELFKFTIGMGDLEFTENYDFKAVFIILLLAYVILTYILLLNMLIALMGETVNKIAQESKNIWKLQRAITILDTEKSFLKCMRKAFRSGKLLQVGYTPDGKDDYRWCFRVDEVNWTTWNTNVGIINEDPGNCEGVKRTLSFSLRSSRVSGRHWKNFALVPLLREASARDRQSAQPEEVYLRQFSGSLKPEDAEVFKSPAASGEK

[10] = test system: hearts of TRPV1−/− mice; assay: Langendorff perfused heart, ischemia and reperfusion (I/R) with OLDA, TRPV1-null; parameters: species or system mouse
Method: as §1

[11] = CAP−HS compared with CON-HS, CON-NS, CAP−NS

COc1cc(CNC(=O)CCCC/C=C/C(C)C)ccc1O [capsaicin, (E)-N-(4-hydroxy-3-methoxybenzyl)-8-methylnon-6-enamide]
Uflow and UNa [1]: Increases | increase in superoxide levels in renal cortex and medulla [2, 11]: approximately 45% | renal cortical Cu/Zn SOD activity ([2]; HS): 74.6 9.6 mU/mg protein | renal cortical Cu/Zn SOD protein expression ([2]; HS): 0.39 0.05 %-actin arbitrary units | renal cortical Mn SOD activity ([2]; HS): 14.3 3.5 mU/mg protein | renal cortical Mn SOD protein expression ([2]; HS): 0.10 0.01 %-actin arbitrary units | renal cortical O2— production ([2]; HS): 3.53 0.46 nmol_min—1_mg dry wt—1 | renal cortical gp91 phox protein expression ([2]; HS): 0.21 0.03 arbitrary units | renal cortical p47phox protein expression ([2]; HS): 0.07 0.01 arbitrary units | renal medullary Cu/Zn SOD activity ([2]; HS): 101.7 11.6 mU/mg protein | renal medullary Cu/Zn SOD protein expression ([2]; HS): 0.41 0.05 %-actin arbitrary units | renal medullary Mn SOD activity ([2]; HS): 27.1 4.2 mU/mg protein | renal medullary Mn SOD protein expression ([2]; HS): 0.13 0.02 %-actin arbitrary units | renal medullary O2— production ([2]; HS): 2.32 0.29 nmol_min—1_mg dry wt—1 | renal medullary p47phox protein expression ([2]; HS): 0.1 0.01 arbitrary units | renal cortical Cu/Zn SOD activity ([2]; NS): 54.8 7.6 mU/mg protein | renal cortical Cu/Zn SOD protein expression ([2]; NS): 0.29 0.05 %-actin arbitrary units | renal cortical Mn SOD activity ([2]; NS): 10.4 2.5 mU/mg protein | renal cortical Mn SOD protein expression ([2]; NS): 0.07 0.01 %-actin arbitrary units | renal cortical O2— production ([2]; NS): 2.35 0.55 nmol_min—1_mg dry wt—1 | renal cortical gp91 phox protein expression ([2]; NS): 0.17 0.03 arbitrary units | renal cortical p47phox protein expression ([2]; NS): 0.05 0.01 arbitrary units | renal medullary Cu/Zn SOD activity ([2]; NS): 67.0 7.6 mU/mg protein | renal medullary Cu/Zn SOD protein expression ([2]; NS): 0.27 0.05 %-actin arbitrary units | renal medullary Mn SOD activity ([2]; NS): 18.7 3.8 mU/mg protein | renal medullary Mn SOD protein expression ([2]; NS): 0.09 0.02 %-actin arbitrary units | renal medullary O2— production ([2]; NS): 1.43 0.40 nmol_min—1_mg dry wt—1 | renal medullary p47phox protein expression ([2]; NS): 0.07 0.01 arbitrary units | MAP [3]: decrease in MAP | plasma CGRP levels [3]: increase in plasma CGRP levels | decrease in MAP ([4]; CAP 10 μg/kg iv, HS): 11±2 | decrease in MAP ([4]; CAP 10 μg/kg iv, NS): 6±1 | decrease in MAP ([4]; CAP 30 μg/kg iv, HS): 21±3 | decrease in MAP ([4]; CAP 30 μg/kg iv, NS): 12 ±2 | decrease in MAP (depressor effect) ([4]; capsaicin 10 μg/kg iv, HS): 11±2 mmHg | decrease in MAP (depressor effect) ([4]; capsaicin 10 μg/kg iv, NS): 6±1 mmHg | decrease in MAP (depressor effect) ([4]; capsaicin 30 μg/kg iv, HS): 21±3 mmHg | decrease in MAP (depressor effect) ([4]; capsaicin 30 μg/kg iv, NS): 12±2 mmHg | renal CGRP release in response to 1 mmol/l capsaicin in capsaicin-pretreated vs control rats [5]: significantly lower | decrease in creatinine clearance [6, 11]: 45% | increase in plasma and urinary 8-iso-prostaglandin F2alpha levels ([6]; CAP−HS compared with control fed a NS diet): approximately 40% | plasma and urine 8-isoprostane levels ([6]; neonatal CAP, NS diet): did not increase

CCCCCCCC/C=C\CCCCCCCC(=O)NCCc1ccc(O)c(O)c1 [OLDA, N-oleoyl-dopamine]
CGRP and SP release in WT compared to TRPV1−/− hearts [7]: significantly higher | LV peak positive dP/dt (+dP/dt) after I/R [8]: 3227±126 mmHg/s | coronary flow (CF) after I/R [8]: 76±6% | left ventricular developed pressure (LVDP) after I/R [8]: 61.3±3.8 mmHg | left ventricular end-diastolic pressure (LVEDP) after I/R [8]: 10.1±0.6 mmHg | potency relative to capsaicin [9]: at least 30 times | protective effect in TRPV1−/− hearts [10]: void | LV peak positive dP/dt (+dP/dt) after I/R ([10]; OLDA 1.5×10^−7M, TRPV1−/−): 1967±299 mmHg/s | coronary flow (CF) after I/R ([10]; OLDA 1.5×10^−7M, TRPV1−/−): 53±2% | left ventricular developed pressure (LVDP) after I/R ([10]; OLDA 1.5×10^−7M, TRPV1−/−): 39.8±3.7 mmHg | left ventricular end-diastolic pressure (LVEDP) after I/R ([10]; OLDA 1.5×10^−7M, TRPV1−/−): 29.9±3.5 mmHg
